{"source": "patent US20080275111A1", "about": "“Novel Use of Lignan Compounds” (priority 2005, published 2008)", "key": {"cell line HT-22 [1]": {"test_system": "cell line HT-22", "assay": "Reactive oxygen species production in cell line HT-22 (CM-H2DCFDA)", "type": "cell-based", "details": "5 μM compound, 8 hours", "protocol": "A cell line HT-22 (obtained from Dr. David Schubert) derived from the hippocampus playing a part in memory of the brain was treated with 5 mM of glutamate and 5 μM of the lignan compound of the present invention simultaneously for 8 hours. As a control, the cell line HT-22 was not treated with the lignan compound of the present invention. The treated cell line HT-22 was then treated with CM-H2DCFDA (chloromethyl derivative of dichlorodihydrofluorescein diacetate, Molecular Probes) to analyze the production of reactive oxygen species."}, "[2]": {"test_system": "lipid peroxidation of the brain tissue", "assay": "Lipid peroxidation of brain homogenate supernatant induced by hydrogen peroxide", "type": "biochemical, rat", "protocol": "After anesthesia of a rat, the tissue of the rat was perfused with 0.9% physiological saline solution containing EDTA. The brain was then extracted from the rat and washed with ice-cold 20 mM Tris-HCl (pH 7.4). After removing water, the weight of the brain was measured. The brain was mixed with 0.1 g/ml of ice-cold 20 mM Tris-HCl (pH 7.4) and homogenized. The homogenized brain was centrifuged and the supernatant was collected. 40 μl of the supernatant was mixed with 40 mM of hydrogen peroxide to induce lipid peroxidation. Simultaneously, different concentration (0.5, 1, 5 and 10 μM) of the lignan compounds isolated from the Example 1 were added into the supernatant, respectively. After incubation of the supernatant in water (37° C.) for 30-60 minutes, 162.5 μl of R1 solution (lipid peroxidation assay kit, Cat. No. 437634, Calbiochem) and 37.5 μl of R2 solution (lipid peroxidation assay kit, Cat. No. 437634, Calbiochem) were added into the cultured supernatant, and the supernatant was further incubated at 45° C. for 40 minutes. Then, the absorbance of the incubated medium was measured at 586 nm to quantify the lipid peroxidation."}, "cell line HT-22 [3]": {"test_system": "cell line HT-22", "assay": "Cytotoxicity in cell line HT-22", "type": "cell-based", "details": "HT-22, 1, 5 and 10 μM, 24 hours, stated for 10 μM", "protocol": "In order to examine the cytotoxicity effect of macelignan itself, a cell line HT-22 derived from the hippocampus was treated with macelignan at concentrations (1, 5 and 10 μM) for 24 hours."}, "cell line HT-22 [4]": {"test_system": "cell line HT-22", "assay": "Brain cell apoptosis induced by glutamate in HT-22 (WST-1)", "type": "cell-based", "details": "HT-22, 5 mM glutamate 24 hours, compound 1, 2, 5 and 10 μM", "protocol": "A cell line HT-22 derived from the hippocampus was treated with 5 mM glutamate for 24 hours to induce apoptosis. As a control, the cell line HT-22 was not treated with glutamate. Then, the cell line HT-22 was treated with the lignan compound of the present invention at concentrations (1, 2, 5 and 10 μM) for 24 hours. The cell death was analyzed with WST-1(Roche)."}, "[5]": {"assay": "Transmission test to the brain (brain uptake clearance, LC/MS)", "type": "in vivo", "details": "male SD rat, 1 mg/kg intravenous", "protocol": "PE50 tubes are independently inserted into the femoral vein and femoral artery of a 250 g male SD rat, and syringes individually containing physiological saline solution and heparin (25 I.U.) are connected to tubes, respectively. The macelignan isolated and purified in Example 1 was dissolved in DMSO, and intravenously administered into the rat in the amount of 1 mg/kg. 400 μl of the blood samples were collected from the artery at 0.5, 1, 1.5 and 2 minutes after administration. After last sampling, the head of the rat was rapidly cut, and the brain tissue was extracted and slightly washed with physiological saline solution.\nThe blood sample prepared in the Example <7-1> was centrifuged at 3,000 rpm for 5 minutes to obtain 100 μl of blood plasma. 500 μl of ethylacetate was added into the blood plasma and the mixture was agitated with a vortex mixer for 10 minutes. Then, the mixture was centrifuged at 3,000 rpm for 5 minutes to obtain 400 μl of the supernatant. […]\nThe weight of the brain tissue sample prepared in the Example <7-1> was measured, and then saline solution corresponding to the weight of 2 times higher than that of the brain tissue was added into the brain tissue and the mixture was homogenized. […]\nThe blood sample and brain tissue sample treated in the Example <7-2> were introduced into the LC/MS system, and then the LC/MS analysis was performed according to the method of the Example <7-3> and the area of a macelignan peak was obtained on the chromatograph. The concentration of macelignan was calculated by using the area of the macelignan peak through the standard curve prepared in the Example <7-3>.\nIn a time-concentration graph of macelignan obtained in the blood sample through the Example <7-4>, AUC0^t (Area Under Curve: AUC) from 0 to the last sample time “tlast”, was obtained with a trapezoidal method (Schaum's Outline of Mathematica, MaGraw-Hill, 2000). Additionally, the amount(Xb) of macelignan was calculated using the concentration of the brain tissue sample. AUC of macelignan may be calculated using the mathematical equation 1. […]"}, "[6]": {"assay": "Toxicity in oral administration", "details": "rat, in vivo; oral administration to rats; data not shown; read-out: 50% lethal dose (LD50)", "protocol": "The lignan compound of the present invention was tested for toxicity in oral administration to rats, and as a result, it was observed that the 50% lethal dose (LD50) was more than 2,000 mg/kg (Data is not shown)."}}, "data": [{"smiles": "COc1cc(C[C@H](C)[C@H](C)Cc2ccc3c(c2)OCO3)ccc1O", "note": "[macelignan, (8R,8′S)-7-(3,4-methylenedioxyphenyl)-7′-(4-hydroxy-3-methoxyphenyl)-8,8′-dimethylbutane]", "values": [{"measurement": "production of reactive oxygen species induced by glutamate", "setting": "cell line HT-22 [1]; HT-22, 5 mM glutamate", "value": "inhibited"}, {"measurement": "production of reactive oxygen species occurred naturally in a cell", "setting": "cell line HT-22 [1]; HT-22 not treated with glutamate", "value": "significantly inhibited"}, {"measurement": "lipid peroxidation induced by hydrogen peroxide at 10 μM", "setting": "[2]; 10 μM compound, compared with control without hydrogen peroxide", "value": "in the similar level as the control"}, {"measurement": "lipid peroxidation induced by hydrogen peroxide", "setting": "[2]; rat brain supernatant, 40 mM hydrogen peroxide, compound 0.5, 1, 5 and 10 μM", "value": "dose-dependently inhibited"}, {"measurement": "cytotoxicity", "setting": "cell line HT-22 [3]", "value": "did not induce cytotoxicity"}, {"measurement": "cytotoxicity", "setting": "cell line HT-22 [3]; listed as lignan compound of the present invention", "value": "did not show cytotoxicity"}, {"measurement": "brain cell apoptosis induced by glutamate", "setting": "cell line HT-22 [4]", "value": "dose-dependently inhibited"}, {"measurement": "clearance", "setting": "[5]; brain and plasma, Xb/AUC, read-out: CLuptake (brain uptake clearance)", "value": "0.203 ± 0.039", "unit": "mL/min"}, {"measurement": "Xb (amount of macelignan in the brain)", "setting": "[5]; brain taken after the 2 minute sample", "value": "7.90 ± 1.52", "unit": "µg"}, {"measurement": "AUC", "setting": "[5]; plasma 0 to 2 minutes, trapezoidal method", "value": 648, "unit": "ng·h/mL"}, {"measurement": "LD50", "setting": "[6]", "value": "> 2000", "unit": "mg/kg"}]}]}
